Key:
Format in all cases: cell-based, human
[1] = system: p-Thr172-AMPKα; assay: Immuno-blotting of p-Thr172-AMPKα; details: for p-Thr172-AMPKα expression after suppressing PKA: senescent cells pre-treated with 10 mM PKA inhibitor Rp-cAMP for one hour; for Thr172-AMPKα phosphorylation: 30 μM LPA, 300 μM ACI, 10 mM AMPKI, 10 mM AICAR, up to day 4
Description: (A) and (B): Young and senescent cells were serum-starved for 2 days, followed by treatment with 10 mM of AMPK inhibitor […]) or 10 mM of AMPK activator AICAR(B) for 4 days. Proteins were extracted from the treated cells and the levels of AMPKα and p-Thr172-AMPKα, total p53, p-Ser15-p53 and […] measured by immuno-blotting. (C) and (D): Young cells (C) and senescent cells (D) were treated with 10 mM AMPKI or 10 mM AICAR and cultured for 4 days, followed by measurement of cell proliferation by cell counting. At this time, the experiment was repeated three times (p<0.001). (A) and (B) are photographs illustrating the results of immuno-blotting. Precisely, sub-cultured young cells (PD 18: A) and senescent cells (PD 64: B) were treated with 30 μM of LPA […] and ACI singly or together, followed by further culture for 1, 2, and 4 days. Proteins were extracted from the cultured cells and the levels of AMPKα, […] β-actin were quantified by immuno-blotting. (A) and (B) are photographs illustrating the results of immuno-blotting. Precisely, senescent cells (PD 64) were pre-treated with 10 mM of PKA inhibitor Rp-cAMP for one hour, followed by treatment with LPA(A) or ACI(B). After culturing the cells for 1, 2, and 4 days, proteins were extracted from the cultured cells and the levels of AMPKα, […] β-actin were quantified by immuno-blotting using 45 μg of the protein. To analyse protein expression, human fibroblasts were lysed in cold lysis buffer (25 mM Hepes, pH 8.0, 150 mM NaCl, 1 mM EDTA, 1 mM Na3VO4, 1 mM NaF, 1% Triton X-100 and protease inhibitors), followed by centrifugation at 4° C. at 9,000 rpm for 10 minutes to obtain supernatant. Protein in the extract was quantified […]. SDS-PAGE electrophoresis was performed with equal amount of the protein (45 μg) to separate. The separated protein was transferred onto NC membrane from the electrophoresis gel. Non-specific protein binding was blocked by blocking the blot (transferred NC membrane) using TTBS […] containing 5% skim milk for one hour. Then, antigen-antibody reaction was induced with diluted primary antibody at 4° C. for overnight. The blot was washed with TTBS, followed by reaction with horseradish peroxidase conjugated anti-IgGs diluted in TTBS containing 5% skim milk (1:5000) at room temperature for one hour. The blot was washed again with TTBS to eliminate non-specific binding of antigen-antibody. Photographs were developed/printed on X-ray film (Kodak) using ECL kit (Pierce) containing peroxidase substrate to identify each protein.

[2] = system: cyclin D1; assay: Immunofluorescent staining of cyclin D1; details: 30 μM LPA
Description: FIG. 3 is a set of photographs illustrating the effect of LPA and ACI on the expressions of p21 and cyclin-D1 in young and senescent cells. Particularly, a-f, g-l and m-r are photographs illustrating that sub-cultured young cells (PD 20: Y) and senescent cells (PD 65: S) were serum-starved for 48 hours respectively, followed by treatment of LPA (a-f) and ACI (g-l) singly or together (m-r), and after culturing for 1, 2, and 4 days, the cells were fixed in 4% hydrogen peroxide, and stained with p21waf1/cip1 (A) and cyclin D1 (B) antibodies, followed by confirming immunofluorescence. At this time, nucleus was stained with DAPI.
Coverslips were placed on 24 well plate on which required amounts of young and senescent cells were distributed. Media were eliminated and the treated cells were washed with PBS twice. Then, the cells were fixed with 4% hydrogen peroxide. Non-specific protein staining was blocked using PBS containing 2% BSA (blocking serum). The cells were stained with primary antibody such as anti-AMPKα, anti-p-Thr172-AMPKα, anti-p-Ser485/491-AMPKα, anti-p53, anti-p-Ser15-p53, anti-p21waf1/cip1, and anti-cyclin D1. To stain nucleus, DAPI (1:1000) was also added, followed by observation under Zeiss LSM 510 laser scanning microscope. […]

[3] = system: p-Ser485/491-AMPKα; assay: Immuno-blotting of p-Ser485/491-AMPKα; details: for p-Ser485/491-AMPKα expression after suppressing PKA: senescent cells pre-treated with 10 mM PKA inhibitor Rp-cAMP for one hour; for Ser485/491-AMPKα phosphorylation: 30 μM LPA, 300 μM ACI, up to day 4
Description: (A) and (B) are photographs illustrating the results of immuno-blotting. Precisely, sub-cultured young cells (PD 18: A) and senescent cells (PD 64: B) were treated with 30 μM of LPA […] and ACI singly or together, followed by further culture for 1, 2, and 4 days. Proteins were extracted from the cultured cells and the levels of AMPKα, p-Thr172-AMPKα, p-Ser485/491-AMPKα, p53, p-Ser15-p53, p21waf1/cip1 and β-actin were quantified by immuno-blotting.
(A) and (B) are photographs illustrating the results of immuno-blotting. Precisely, senescent cells (PD 64) were pre-treated with 10 mM of PKA inhibitor Rp-cAMP for one hour, followed by treatment with LPA(A) or ACI(B). After culturing the cells for 1, 2, and 4 days, proteins were extracted from the cultured cells and the levels of AMPKα, p-Thr172-AMPKα, p-Ser485/491-AMPKα, p53, p-Ser15-p53, p21waf1/cip1 and β-actin were quantified by immuno-blotting using 45 μg of the protein.
To analyse protein expression, human fibroblasts were lysed in cold lysis buffer (25 mM Hepes, pH 8.0, 150 mM NaCl, 1 mM EDTA, 1 mM Na3VO4, 1 mM NaF, 1% Triton X-100 and protease inhibitors), followed by centrifugation at 4° C. at 9,000 rpm for 10 minutes to obtain supernatant. Protein in the extract was quantified […]. SDS-PAGE electrophoresis was performed with equal amount of the protein (45 μg) to separate. The separated protein was transferred onto NC membrane from the electrophoresis gel. Non-specific protein binding was blocked by blocking the blot (transferred NC membrane) using TTBS […] containing 5% skim milk for one hour. Then, antigen-antibody reaction was induced with diluted primary antibody at 4° C. for overnight. The blot was washed with TTBS, followed by reaction with horseradish peroxidase conjugated anti-IgGs diluted in TTBS containing 5% skim milk (1:5000) at room temperature for one hour. The blot was washed again with TTBS to eliminate non-specific binding of antigen-antibody. Photographs were developed/printed on X-ray film (Kodak) using ECL kit (Pierce) containing peroxidase substrate to identify each protein.

Compound | p-Thr172-AMPKα expression after suppressing PKA [1] | Thr172-AMPKα phosphorylation ([1]; senescent cells) | Thr172-AMPKα phosphorylation ([1]; young cells) | cyclin D1 expression (immunofluorescence) ([2]; senescent cells, 300 μM ACI) | p-Ser485/491-AMPKα expression after suppressing PKA [3] | Ser485/491-AMPKα phosphorylation ([3]; senescent cells) | Ser485/491-AMPKα phosphorylation ([3]; young cells) | cyclin D1 expression (immunofluorescence) ([2]; young cells)
Nc1ncnc2c1ncn2C1CCCO1 (centres unmarked) [ACI, 9-(tetrahydro-2′-furyl)adenine] | not changed | reduced | began to increase | reduced | not changed | did not affect | reduced | –
lysophosphatidic acid [LPA] | not changed at all | reduced | reduced | – | not changed at all | gradually increased | reduced | decrease

From patent US20110124607A1, “COMPOSITION FOR REGULATION CELLULAR SENESCENCE COMPRISING LYSOPHOSPHATIDIC ACID AND INHIBITOR OF ADENYLYL CYCLASE AS ACTIVE INGREDIENTS” (priority 2008, published 2011)
